Laboratory results as given in ChEMBL document CHEMBL5537157, “Selective Antitumor Effect and Lower Toxicity of Mitochondrion-Targeting Derivatization of Triptolide” (J Med Chem, 2024).
The source made the active and inactive calls. The rule behind the calls is not given here.

What was measured:
NCI-H1975 [1] = experiment: Cytotoxicity against human NCI-H1975 cells assessed as cell growth inhibition at 4.5 to 10 nM incubated for 48 hrs by MTT assay relative to control; type: functional; conditions: dose 4.5-10 nM
[2] = Toxicity in zebrafish embryo assessed as damage effect in liver function at 0.5 uM with replacement of new growth solution daily by fluorescence microscopy relative to control; type: tissue-based, Danio rerio; conditions: in vivo
[3] = Renal toxicity in fluorescent transgenic zebrafish at 0.5 to 2 uM treated for 48 hrs by fluorescence microscopy; design: species or system Danio rerio; conditions: in vivo, dose 0.5-2 µM
[4] = Toxicity in zebrafish embryo assessed as death rate at 2 uM pretreated with compound followed by replacement of growth liquid by microscopy (reference value: 2.22 +/- 3.84 %); design: species or system Danio rerio; conditions: in vivo, read-out: Activity
[5] = Toxicity in zebrafish embryo assessed as death rate at 4 uM pretreated with compound followed by replacement of growth liquid by microscopy (reference value: 2.22 +/- 3.84 %); design: species or system Danio rerio; conditions: in vivo, read-out: Activity
[6] = Toxicity in zebrafish embryo assessed as degree of periocular edema at 0.5 uM pretreated with compound followed by replacement of growth liquid by microscopy (reference value: 0.00 %); design: species or system Danio rerio; conditions: in vivo
[7] = Toxicity in zebrafish embryo assessed as degree of periocular edema at 2 uM pretreated with compound followed by replacement of growth liquid by microscopy (reference value: 0.00 %); design: species or system Danio rerio; conditions: in vivo
BEAS-2B [8] = experiment: Cytotoxicity against human BEAS-2B cells assessed as cell growth inhibition incubated for 48 hrs by MTT assay; type: toxicity, cell-based
NCI-H1975 [9] = experiment: Inhibition of cell migration in human NCI-H1975 cells at 2.5 to 5 nM incubated upto 72 hrs by scratch healing assay; type: functional, cell-based; conditions: dose 2.5-5 nM
[10] = Toxicity in zebrafish embryo assessed as liver function at 0.25 uM with replacement of new growth solution daily by fluorescence microscopy (reference value: 100 +/- 8.89 %); type: tissue-based, Danio rerio; conditions: in vivo
[11] = Cytotoxicity against human HUVEC cells assessed as cell growth inhibition at 4.5 to 10 nM incubated for 48 hrs by MTT assay relative to control; type: toxicity, cell-based; conditions: dose 4.5-10 nM, read-out: Imax
[12] = Toxicity in zebrafish at 2 uM; design: species or system Danio rerio; conditions: in vivo
[13] = Toxicity in zebrafish embryo assessed as death rate at 1 uM pretreated with compound followed by replacement of growth liquid by microscopy (reference value: 2.22 +/- 3.84 %); design: species or system Danio rerio; conditions: in vivo, read-out: Activity
[14] = Developmental toxicity in zebrafish AB zygotes assessed as decrease in body length at 0.25 to 4 uM treated at 6 hrs post-fertilization measured at 24 to 72 hrs post-fertilization; design: species or system Danio rerio; conditions: in vivo, dose lower 0.25 µM, time lower 18 hrs, dose upper 4 µM, time upper 66 hrs
[15] = Toxicity in zebrafish embryo assessed as damage effect in liver function at 0.25 uM with replacement of new growth solution daily by fluorescence microscopy relative to control; type: tissue-based, Danio rerio; conditions: in vivo
[16] = Toxicity in zebrafish embryo assessed as liver development at 0.5 uM with replacement of new growth solution daily by fluorescence microscopy (reference value: 100.00 +/- 8.64 %); type: tissue-based, Danio rerio; conditions: in vivo
[17] = Toxicity in zebrafish embryo assessed as damage effect in liver development at 0.5 uM with replacement of new growth solution daily by fluorescence microscopy relative to control; type: tissue-based, Danio rerio; conditions: in vivo
[18] = Toxicity in zebrafish embryo assessed as damage effect in liver development at 0.25 uM with replacement of new growth solution daily by fluorescence microscopy relative to control; design: species or system Danio rerio; conditions: in vivo
PC-3 = experiment: Cytotoxicity against human PC-3 cells assessed as cell growth inhibition at 4.5 to 10 nM incubated for 48 hrs by MTT assay relative to control; type: functional; conditions: dose 4.5-10 nM
[19] = Teratogenic toxicity in zebrafish AB zygotes at 0.5 to 2 uM treated at 6 hrs post-fertilization measured at 24 to 72 hrs post-fertilization; design: species or system Danio rerio; conditions: in vivo, dose lower 0.5 µM, time lower 18 hrs, dose upper 2 µM, time upper 66 hrs
[20] = Drug accumulation in mitochondria of human NCI-H1975 cells at 10 uM incubated for 7 hrs by HPLC analysis; type: ADME; conditions: nci-h1975, 7 h
[21] = Toxicity in zebrafish embryo assessed as degree of periocular edema at 1 uM pretreated with compound followed by replacement of growth liquid by microscopy (reference value: 0.00 %); design: species or system Danio rerio; conditions: in vivo
[22] = Developmental toxicity in zebrafish AB zygotes assessed as animal mortality at 4 uM treated at 6 hrs post-fertilization measured at 24 to 72 hrs post-fertilization; design: species or system Danio rerio; conditions: in vivo, time 18-66 hrs
MCF7 = experiment: Cytotoxicity against human MCF7 cells assessed as cell growth inhibition at 4.5 to 10 nM incubated for 48 hrs by MTT assay relative to control; type: functional; conditions: dose 4.5-10 nM
[23] = Toxicity in zebrafish embryo assessed as liver function at 0.5 uM with replacement of new growth solution daily by fluorescence microscopy (reference value: 100 +/- 8.89 %); type: tissue-based, Danio rerio; conditions: in vivo
[24] = Toxicity in zebrafish embryo assessed as liver development at 0.25 uM with replacement of new growth solution daily by fluorescence microscopy (reference value: 100.00 +/- 8.64 %); type: tissue-based, Danio rerio; conditions: in vivo
[25] = Toxicity in zebrafish embryo assessed as death rate at 0.5 uM pretreated with compound followed by replacement of growth liquid by microscopy (reference value: 0.00 %); design: species or system Danio rerio; conditions: in vivo, read-out: Activity
[26] = Renal toxicity in zebrafish assessed as increase in TNF-alpha expression at 0.5 to 2 uM treated for 48 hrs by RT-qPCR analysis; design: species or system Danio rerio; conditions: in vivo, dose 0.5-2 µM
[27] = Toxicity in zebrafish embryo assessed as damage effect in liver function at 2 uM with replacement of new growth solution daily by fluorescence microscopy relative to control; design: species or system Danio rerio; conditions: in vivo
[28] = Toxicity in zebrafish embryo assessed as liver function at 1 uM with replacement of new growth solution daily by fluorescence microscopy (reference value: 100 +/- 8.89 %); type: tissue-based, Danio rerio; conditions: in vivo
BEAS-2B [29] = experiment: Inhibition of mitochondrial membrane potential in human BEAS-2B cells at 200 nM incubated for 24 hrs by JC-1 staining based flow cytometry; type: toxicity, cell-based; conditions: 0.2 µM
[30] = Toxicity in zebrafish embryo assessed as damage effect in liver development at 2 uM with replacement of new growth solution daily by fluorescence microscopy relative to control; type: tissue-based, Danio rerio; conditions: in vivo
A549 = experiment: Cytotoxicity against human A549 cells assessed as inhibition of cell viability incubated for 48 hrs by MTT assay; type: functional, cell-based; conditions: A549, 48 h
NCI-H1975 [31] = experiment: Induction of late apoptosis in human NCI-H1975 cells at 50 to 400 nM incubated for 24 hrs by Annexin V-FITC/PI staining based flow cytometry; type: functional, cell-based; conditions: dose 50-400 nM
[32] = Renal toxicity in zebrafish assessed as increase in TNF-alpha expression at 2 uM treated for 48 hrs by RT-qPCR analysis; design: species or system Danio rerio; conditions: in vivo
[33] = Drug accumulation in mitochondria of human NCI-H1975 cells at 600 nM incubated for 5 hrs by Red CMXRos probe based analysis; type: ADME; conditions: nci-h1975, 5 h, 0.6 µM
Danio rerio = organism: Danio rerio; experiment: Induction of ROS production in zebrafish at 2 uM measured after 48 hrs by fluorescence microscopy; type: functional, organism-based
NCI-H1975 [34] = experiment: Induction of ROS generation in human NCI-H1975 cells incubated for 24 hrs by DCFH-DA probe based analysis; type: functional, cell-based; conditions: dose 0.05-0.4 µM

Structure (SMILES) | Activity [2] [%] | mortality at 2 µM [4] [%] | mortality at 4 µM [5] [%] | Activity [6] [%] | Activity [7] [%] | inhibition (NCI-H1975 [9]) | Activity [10] [%] | Activity [12] | mortality at 1 µM [13] [%] | Activity [15] [%] | Activity [16] [%] | Activity [17] [%] | Activity [18] [%] | Drug uptake [20] | Activity [21] [%] | Activity [22] | Activity [23] [%] | Activity [24] [%] | mortality at 24 h, 0.5 µM [25] [%] | other results
CC(C)[C@]12O[C@H]1[C@@H]1O[C@@]13[C@@]1(C)CCC4=C(COC4=O)[C@@H]1C[C@@H]1O[C@@]13C2=O [TRIPTONIDE] | 76.91 | 13.3 | 22.2 | 6.67 | 48.89 | Active | 50.55 | Toxic | 11.1 | 49.45 | 45.38 | 54.62 | 12.2 | Active | 13.33 | Toxic | 23.09 | 87.8 | 2.22 | Imax (NCI-H1975 [1]): ~40%; Activity [3]: Toxic; inhibition (INH) (BEAS-2B [8]): Dose-Dependent Effect; Emax at 48 h [11]: ~60%; Activity [14]: Toxic; Imax (PC-3): ~60%; Activity [19]: Toxic; Imax (MCF7): ~40%; Activity [26]: Toxic
CC(C)[C@]12O[C@H]1[C@@H]1O[C@]13[C@]1(O[C@H]1C[C@H]1C4=C(CC[C@@]13C)C(=O)OC4)[C@@H]2OC(=O)CCCCCCCC[n+]1ccc(/C=C/c2c[nH]c3ccccc23)cc1.[Br-] | 48.47 | 6.67 | 11.1 | 2.22 | 33.33 | Active | 61.46 | Non-Toxic | 6.67 | 38.54 | 85 | 15.05 | 4.83 | Active | 13.33 | Non-Toxic | 51.53 | 95.17 | 2.22 | Activity [27]: 79.96%; Activity [28]: 27.18%; Activity (BEAS-2B [29]): Non-Toxic; Activity [30]: 58.21%; IC50 (A549): 46.1 µM; Activity (NCI-H1975 [31]): Active; Activity [32]: Toxic; Drug uptake [33]: Active; Activity (Danio rerio): Active; Activity (NCI-H1975 [34]): Dose-Dependent Effect
